Format in all cases: in vivo
The subject of one assay is Tetranychus urticae. Put plainly: Tetranychus test (TETRUR spray treatment; OP-resistant in Example 10). To be noted: application rate 100 g/ha, after 5 days, bean leaf discs. Summed up: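 Bean leaf discs (Phaseolus vulgaris) infested with all stages of Tetranychus urticae sprayed with compound diluted in emulsifier-containing water. In the standard test, % kill scored after 5 days. The OP-resistant strain test uses the same method with scoring after a set period; 100% = all mites dead, 0% = none.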

A further assay relates to Echinocloa crus-galli. Nature of the assay: Herbicidal post-emergence action, ECHCG. To be noted: 20 g/ha. Summed up:
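Weeds sown in sandy loam, grown in greenhouse 2–3 weeks and treated post-emergence at one-leaf stage (or BBCH 10–13, 5–10 cm) with WP/EC formulations sprayed at various dosages (600–800 l/ha water, 0.1–0.2% wetting agent). Visual rating after about 3 weeks as % activity versus untreated (100% = dead).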

Another assay concerns Myzus persicae. Put plainly: Myzus persicae test (MYZUPE Tau), leaf dipping. As to conditions: 20 ppm, 6dat. The protocol: Myzus Persicae Test (MYZUPE Tau) To produce a suitable preparation of active compound, 1 part by weight of active compound is mixed with the stated amount of solvent and emulsifier, and the concentrate is diluted with emulsifier-containing water to the desired concentration. Cabbage leaves (Brassica oleracea) which are heavily infested by the green peach aphid (Myzus persicae) are treated by dipping into the active compound preparation of the desired concentration. After the desired period of time, the kill in % is determined. 100% means that all of the aphids have been killed; 0% means that none of the aphids have been killed.

In another assay the test system is Phaedon cochleariae. Put plainly: Phaedon test (PHAECO spray treatment). As to conditions: application rate 500 g/ha, after 7 days, Chinese cabbage leaf discs. The procedure, abridged: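 Chinese cabbage (Brassica pekinensis) leaf discs sprayed with compound diluted in emulsifier-containing water to the desired concentration, then infested with mustard beetle larvae once dry. Mortality in % scored after 7 days or after the desired period (100% = all larvae dead, 0% = none dead).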

A further assay relates to Setaria viridis. Put plainly: Herbicidal pre-emergence action, SETVI. As to conditions: 20 g/ha. The text has this: 1. Herbicidal Pre-Emergence Action
• Seeds of monocotyledonous and dicotyledonous weed plants and crop plants are placed in wood-fiber pots in sandy loam and covered with soil. The test compounds, formulated in the form of wettable powders (WP), are then, as an aqueous suspension with a water application rate of 600 l/ha (converted), with 0.2% of wetting agent added, applied at various dosages to the surface of the covering soil. • After the treatment, the pots are placed in a greenhouse and kept under good growth conditions for the test plants. The visual assessment of the damage to the test plants is carried out after a trial period of about 3 weeks by comparison with untreated controls (herbicidal activity in percent: 100% activity=the plants have died, 0% activity=like control plants). • In addition to the compounds mentioned above, the following compounds show an activity of 90-100% against Alopecurus myosuroides, Digitaria sanguinalis, Echinocloa crus-galli, Lolium multiflorum, Setaria viridis and Sorghum halapense when applied by the pre-emergence method at 320 g/ha of a.i.: I-a-2, I-a-10, I-a-11, I-a-12.
1. Herbicidal Pre-Emergence Action (Pre)
• Seeds of monocotyledonous and dicotyledonous weed plants and crop plants are placed in wood-fiber pots in sandy loam and covered with soil. The test compounds, formulated in the form of wettable powders (WP) or emulsion concentrates (EC), are then, as an aqueous suspension with a water application rate of 600-800 l/ha (converted), with 0.1-0.2% of wetting agent added, applied at various dosages to the surface of the covering soil. • After the treatment, the pots are placed in a greenhouse and kept under good growth conditions for the test plants. […] Herbicidal Post-Emergence Action (Post) • Seeds of monocotyledonous and dicotyledonous weed and crop plants are placed in sandy loam in wood-fiber pots, covered with soil and cultivated in a greenhouse under good growth conditions. 2-3 weeks (stages 10-13 according to the BBCH scale) after sowing, the test plants are treated at a height of 5-10 cm. The test compounds, formulated as wettable powders (WP) or emulsion concentrates (EC), are then, with a water application rate of 600-800 l/ha (converted), with 0.1-0.2% of wetting agent added, sprayed at various dosages onto the green parts of the plants.
AVEFA: Avena fatua LOLMU: Lolium multiflorum SETVI: Setaria viridis CHEAL: Chenopodium album VIOTR: Viola tricolor VERPE: Veronica persica ORYSA: Oryza sativa TRZAS: Triticum aestivum ZEAMX: Zea mays ALOMY: Alopecurus myosuroides DIGSA: Digitaria sanguinalis ECHCG: Echinocloa crus-galli SORHA: Sorghum halepense AVESA: Avena sativa AMARE: Amaranthus retroflexus SINAL: Sinapis alba STEME: Stellaria media

Take `CCOC(=O)OC1=C(c2c(C)cc(I)cc2CC)C(=O)C2(CCC(OC)CC2)N1` (mixture of isomers) [I-b-2]: the “effect in % (spider mites killed)” value with Tetranychus urticae amounted to 80%. Further, the “% Activity ECHCG” value in the assay on Echinocloa crus-galli is 70%. In addition, the “% Activity MYZUPE tau” value in the assay with Myzus persicae turned out to be 90%. Also, the “effect in % (beetle larvae killed)” value with Phaedon cochleariae is reported as 83%. Also, in the assay with Setaria viridis, the “% Activity SETVI” value is listed as 70%.
